Structures are written as SMILES.

For orientation: Kd means a measure of binding affinity in units of concentration. The IC50 is the midpoint of a concentration-inhibition curve. By EC50 is commonly meant the concentration at which the effect is half-maximal.

Assay [1] addresses T1, RARβ (Homo sapiens, UniProt P10826).
T1 sequence (P10826 1-455): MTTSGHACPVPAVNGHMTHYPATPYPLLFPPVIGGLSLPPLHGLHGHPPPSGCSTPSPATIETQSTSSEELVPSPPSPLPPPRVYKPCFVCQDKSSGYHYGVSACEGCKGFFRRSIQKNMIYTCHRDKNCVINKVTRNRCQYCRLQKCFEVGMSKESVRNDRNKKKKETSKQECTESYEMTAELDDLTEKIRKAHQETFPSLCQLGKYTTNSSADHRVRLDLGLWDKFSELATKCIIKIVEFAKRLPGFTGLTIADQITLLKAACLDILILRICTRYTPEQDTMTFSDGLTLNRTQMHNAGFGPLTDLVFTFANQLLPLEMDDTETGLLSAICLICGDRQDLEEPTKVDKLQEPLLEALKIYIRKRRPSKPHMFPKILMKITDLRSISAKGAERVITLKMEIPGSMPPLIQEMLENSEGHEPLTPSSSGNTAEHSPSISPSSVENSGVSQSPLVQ
Kind of assay: ligand binding assay, RARβ. The following applies: last item of cell, read-out: RAR β Kd. From the text:
(§1) Assays described below measure the ability of a compound to bind to, and/or activate various retinoid receptor subtypes. When in these assays a compound binds to a given receptor subtype and activates the transcription of a reporter gene through that subtype, then the compound is considered an agonist of that receptor subtype. […] In the below described assays the ability of the compounds to bind to RARα, RARβ, RARγ, RXRα, RXRβ and RXRγ receptors, and the ability or inability of the compounds to activate transcription of a reporter gene through these receptor subtypes can be tested.
(§2) A holoreceptor transactivation assay and a ligand binding assay which measure the antagonist/agonist like activity of the compounds of the invention, or their ability to bind to the several retinoid receptor subtypes, respectively, are described in published PCT Application No. WO WO93/11755 (particularly on pages 30-33 and 37-41) published on Jun. 24, 1993, the specification of which is also incorporated herein by reference. A detailed experimental procedure for holoreceptor transactivations has been described by Heyman et al. Cell 68, 397-406, (1992); Allegretto et al. J. Biol. Chem. 268, 26625-26633, and Mangelsdorf et al. The Retinoids: Biology, Chemistry and Medicine, pp 319-349, Raven Press Ltd., New York, which are expressly incorporated herein by reference. The results obtained in this assay are expressed in EC50 numbers, as they are also in the chimeric receptor transactivation assay. The results of ligand binding assay are expressed in Kd numbers. (See Cheng et al. Biochemical Pharmacology Vol. 22 pp 3099-3108, expressly incorporated herein by reference.)
The results of the ligand binding assay for several preferred compounds of the invention are included in Table 1.

The target in assay [2] is T2, P450RAI-1 (Homo sapiens, UniProt O43174).
T2 construct: expressed in transfected cells; host or cells: HeLa
T2 sequence (O43174 1-497): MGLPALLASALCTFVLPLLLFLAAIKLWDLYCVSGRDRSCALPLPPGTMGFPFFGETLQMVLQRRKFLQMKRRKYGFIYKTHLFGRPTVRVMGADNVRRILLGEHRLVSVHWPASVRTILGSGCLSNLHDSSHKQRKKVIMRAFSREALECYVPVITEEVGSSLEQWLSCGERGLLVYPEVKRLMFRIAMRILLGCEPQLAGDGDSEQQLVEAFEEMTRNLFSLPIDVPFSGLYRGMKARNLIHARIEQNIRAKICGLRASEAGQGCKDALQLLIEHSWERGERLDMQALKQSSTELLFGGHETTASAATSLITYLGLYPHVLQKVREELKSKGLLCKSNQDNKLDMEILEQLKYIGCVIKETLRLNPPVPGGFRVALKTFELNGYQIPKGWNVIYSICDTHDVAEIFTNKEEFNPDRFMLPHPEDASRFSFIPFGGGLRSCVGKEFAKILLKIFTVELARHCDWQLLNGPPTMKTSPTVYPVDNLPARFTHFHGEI
Briefly: P450RAI-1 cell-based inhibitor assay ([3H]-RA metabolism, intact cells). The following applies: P450RAI-1 stably transfected HeLa cells, 3 hours at 37° C., all-trans-RA metabolism; read-out: P450RAI INHIBITION DATA RAI-1 Intact cells IC50. The method, then: FIG. 1 is a schematic representation of the P450RAI cell based assay utilized to evaluate the ability of the compounds of the invention to inhibit the Cytochrome P450RAI enzyme.
P450RAI-1 and P450RAI-2 Cell-Based Inhibitor Assay:
P450RAI-1 stably transfected HeLa cells, or P450RAI-2 stably transfected HeLa cells, as applicable, are maintained in […] tissue culture dishes in Modified Eagle's Medium (MEM) containing 10% Fetal Bovine Serum (FBS) and 100 μg/ml hygromycin. Exponentially growing cells are harvested by incubating in trypsin. Cells are then washed with 1X Phosphate Buffered Saline (PBS) and plated in a 48-well plate at 5×10^5 cells in 0.2 ml MEM medium containing 10% FBS and 0.05 μCi [^3H]-RA in the presence or absence of increasing concentrations of the test compounds. The compounds are diluted in 100% DMSO and then added in triplicate wells at either 10, 1 or 0.1 μM final concentration. As a positive control for RA metabolism inhibition, cells are also incubated with ketoconazole at 100, 10 and 1 μM. Cells are incubated for 3 hours at 37° C. The retinoids are then extracted using the procedure of Bligh et al. (1959) Canadian Journal of Biochemistry 37, 911-917, modified by using methylenechloride instead of chloroform. The publication Bligh et al. (1959) Canadian Journal of Biochemistry 37, 911-917 is specifically incorporated herein by reference. The water soluble radioactivity is quantified using a β-scintillation counter. IC50 values represent the concentration of inhibitor required to inhibit all-trans-RA metabolism by 50 percent and are derived manually from log-transformed data.

Assay [3] deals with T3, RARα (Homo sapiens, UniProt P10276).
T3 sequence (P10276 183-417 limits assumed): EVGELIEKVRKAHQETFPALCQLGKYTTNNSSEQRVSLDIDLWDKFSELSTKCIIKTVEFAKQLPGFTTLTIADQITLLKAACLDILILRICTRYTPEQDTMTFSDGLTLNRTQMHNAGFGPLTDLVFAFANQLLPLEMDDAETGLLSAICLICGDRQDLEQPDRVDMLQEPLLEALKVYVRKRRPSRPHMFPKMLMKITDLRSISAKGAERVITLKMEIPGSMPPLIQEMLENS
Kind of assay: chimeric receptor transactivation assay, RARα. It counts as cell-based. The following applies: for RAR α (EFFICACY): value in brackets.
Description: as §1
As far as specific assays are concerned, a chimeric receptor transactivation assay which tests for agonist-like activity in the RARα, RARβ, and RARγ, receptor subtypes, and which is based on work published by Feigner P. L. and Holm M. (1989) Focus, 112 is described in detail in U.S. Pat. No. 5,455,265. The specification of U.S. Pat. No. 5,455,265 is hereby expressly incorporated by reference. The numeric results obtained with several preferred compounds of this invention in this assay are shown below in Table 1.
as §2

As for `C#Cc1cc(C(=O)Oc2ccc(CC(=O)O)cc2)cc2c1OC(C)(C)CC2(C)C` [Compound 1, 8-Ethynyl-2,2,4,4-tetramethyl-chroman-6-carboxylic acid 4-carboxymethyl-phenyl ester], the Kd in assay [1] was greater than 10000 nM. For the same compound, in assay [2], the IC50 stood at 500 nM.
On to `C#Cc1cc(C(=O)Oc2ccc(CC(=O)OCC)cc2)cc2c1OC(C)(C)CC2(C)C` [Compound 2, 8-Ethynyl-2,2,4,4-tetramethyl-chroman-6-carboxylic acid 4-ethoxycarbonylmethyl-phenyl ester], for which the Kd in assay [1] is greater than 10000 nM. Further, the IC50 in assay [2] came out at 6000 nM.
Turning to `C#Cc1cc(C(=O)Oc2ccc(CC(=O)OCOC(C)=O)cc2)cc2c1OC(C)(C)CC2(C)C` [Compound 3, 8-Ethynyl-2,2,4,4-tetramethyl-chroman-6-carboxylic acid 4-acetoxymethoxycarbonylmethyl-phenyl ester], the equilibrium dissociation constant (Kd) in assay [1] was greater than 10000 nM. The IC50 in assay [2] turned out to be 500 nM.
On to `C#Cc1cc(C(=O)Oc2ccc(CC(=O)O)c(F)c2)cc2c1OC(C)(C)CC2(C)C` [Compound 4, 8-Ethynyl-2,2,4,4-tetramethyl-chroman-6-carboxylic acid-4-carboxymethyl-3-fluoro-phenyl ester], for which the Kd in assay [1] was 6560 nM. Further, the IC50 in assay [2] is 100 nM. Besides, the “RAR α (EFFICACY)” value in assay [3] is given as 20.
Regarding `C#Cc1cc(C(=O)Oc2ccc(CC(=O)OCOC(C)=O)c(F)c2)cc2c1OC(C)(C)CC2(C)C` [Compound 5, 8-Ethynyl-2,2,4,4-tetramethyl-chroman-6-carboxylic acid 4-acetoxymethoxycarbonylmethyl-3-fluoro-phenyl ester], the Kd in assay [1] was determined as 5550 nM. Besides, in assay [2], the IC50 stood at 75 nM. For the same compound, the “RAR α (EFFICACY)” value in assay [3] was found to be 10.
On to `CC1(C)CC(C)(C)c2cc(C(=O)Oc3ccc(CC(=O)O)c(F)c3)cc(C#N)c2O1` [Compound 32, 8-Cyano-2,2,4,4-tetramethyl-chroman-6-carboxylic acid-4-carboxymethyl-3-fluoro-phenyl ester], for which the Kd in assay [1] was greater than 10000 nM. Moreover, the IC50 in assay [2] was found to be 100 nM.
The corresponding values for `CC(=O)OCOC(=O)Cc1ccc(OC(=O)c2cc(C#N)c3c(c2)C(C)(C)CC(C)(C)O3)cc1F` [Compound 33, 8-Cyano-2,2,4,4-tetramethyl-chroman-6-carboxylic acid 4-acetoxymethoxycarbonylmethyl-3-fluoro-phenyl ester] are greater than 10000 nM and 100 nM.
For `C#Cc1cc(C#Cc2ccc(CC(=O)O)cc2)cc2c1OC(C)(C)CC2(C)C` [Compound 40, [4-(8-Ethynyl-2,2,4,4-tetramethyl-chroman-6-ylethynyl)-phenyl]-acetic acid], the Kd in assay [1] was 7620 nM. Moreover, the IC50 in assay [2] turned out to be 10 nM. In assay [3] (first item of cell EC50/(EFFICACY)/Kd, read-out: RAR α EC50), the concentration giving a half-maximal response (EC50) amounted to 129 nM. In addition, the “RAR α (EFFICACY)” value in assay [3] amounted to 15.
Turning to `C#Cc1cc(C#Cc2ccc(CC(=O)O)c(F)c2)cc2c1OC(C)(C)CC2(C)C` [Compound 41, [4-(8-Ethynyl-2,2,4,4-tetramethyl-chroman-6-ylethynyl)-2-fluoro-phenyl]-acetic acid], the equilibrium dissociation constant (Kd) in assay [1] was 4950 nM. Further, the IC50 in assay [2] stood at 4 nM. Further, in assay [3], the “RAR α (EFFICACY)” value came to 10.
Consider `C#CCc1cc(C#Cc2ccc(CC(=O)O)cc2)cc2c1OC(C)(C)CC2(C)C` [Compound 49], for which, in assay [1], the Kd is greater than 10000 nM. Also, the IC50 in assay [2] is 18 nM.

(Values after patent US7351737B2, “4-[(8-substituted)-6-chromanoyl]-and 4-[8-substituted)-chroman-6-YL-ethynyl]-benzoic and phenylacetic acids, their esters and salts having cytochrome P450RAI inhibitory activity” (Allergan, Inc., priority 2002, dated 2008).)
